Laboratory results from patent US12466829B2, “Spirocyclic piperidine melanocortin subtype-2 receptor (MC2R) antagonists and uses thereof” (Crinetics Pharmaceuticals, Inc., priority 2019, dated 2025).

Target: T1, hMC2 receptor (Homo sapiens, UniProt Q01718)
T1 construct: host or cells: CRE-bla-CHO-K1 cells
Assay: hMC2 membrane binding assay ([125I]ACTH (1-39) Tyr23, SPA)
Conditions: crude membranes of CRE-bla-CHO-K1 cells expressing hMC2 receptor and hMRAP; 0.2 nM [125I]ACTH (1-39) Tyr23; 1.5 hours at room temperature; read-out: MC2R binding potency
Description: Crude membrane fractions are prepared from CRE-bla-CHO-K1 cells stably expressing hMC2 receptor and hMRAP accessory protein (Thermo Fisher). The cells are grown to 85-100% confluence on standard tissue culture dishes in GlutaMax DMEM growth media (Gibco) with following additives: 10% dialyzed FBS (Gemini), 0.1 mM NEAA (Gibco), 25 mM HEPES (Gibco), 5 μg/mL blasticidin (Goldbio), 100 μg/mL zeocin (Invitrogen), 600 μg/mL hygromycin (Goldbio). To prepare membranes, cells are scraped and collected in 1× Dulbecco's phosphate buffered saline (Corning) and then pelleted at 1000 RPM's. The cell pellet is reconstituted in membrane preparation buffer (20 mM HEPES, 6 mM MgCl2 and 1 mM EGTA, protease inhibitor tablets (Pierce) adjusted to pH 7.4), homogenized using a dounce homogenizer, and the resulting membrane fraction is pelleted by centrifugation at 12,000 RPM's. The membrane pellet is resuspended in membrane preparation buffer, snap freezed and stored at −80° C. for later use.
The hMC2 membrane binding assay utilizes the following components: radiolabel [^125I]ACTH (1-39) Tyr23 (PerkinElmer), wheatgerm agglutinin coated PVT SPA beads (PerkinElmer), crude hMC2R membranes, and compounds. Briefly hMC2R membranes are incubated with SPA beads in binding assay buffer (50 mM HEPES, 5 mM MgCl2, 1 mM CaCl2), 0.2% BSA, protease inhibitor tablets (Pierce) adjusted to pH7.4) prior to assay initiation. […] Assay plates are read using a Top Count NXT and Ki values for compounds are determined using a GraphPad Prism 6 non-linear regression analysis.

T1 sequence (Q01718 whole entry): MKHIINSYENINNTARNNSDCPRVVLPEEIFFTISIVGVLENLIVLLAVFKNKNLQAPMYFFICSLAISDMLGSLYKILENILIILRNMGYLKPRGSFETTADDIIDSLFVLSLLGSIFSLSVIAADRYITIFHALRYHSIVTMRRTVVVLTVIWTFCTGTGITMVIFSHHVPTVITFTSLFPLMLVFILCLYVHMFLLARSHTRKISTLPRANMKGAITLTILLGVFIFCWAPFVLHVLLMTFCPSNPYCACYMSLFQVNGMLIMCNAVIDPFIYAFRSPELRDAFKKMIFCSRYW
T1 sequence (Q8TCY5 whole entry partner): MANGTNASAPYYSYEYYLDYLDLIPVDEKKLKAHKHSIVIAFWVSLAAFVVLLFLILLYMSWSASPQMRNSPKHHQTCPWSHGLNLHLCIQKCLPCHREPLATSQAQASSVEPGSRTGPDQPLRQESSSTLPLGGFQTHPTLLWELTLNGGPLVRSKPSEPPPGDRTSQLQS

| SMILES | Ki |
| --- | --- |
| CCOc1ncccc1-c1ccc2c(n1)N(C(=O)[C@@H]1CCNC1)CC21CCN(c2ccc(C(F)(F)F)cc2C#N)CC1 [1-49, 2-[6′-(2-ethoxypyridin-3-yl)-1′-[(3R)-pyrrolidine-3-carbonyl]-1′,2′-dihydrospiro[piperidine-4,3′-pyrrolo[2,3-b]pyridin]-1-yl]-5-(trifluoromethyl)benzonitrile] | < 10 nM |
| CCOc1ncccc1-c1ccc2c(n1)N(C(=O)CCNC)CC21CCN(c2ccc(C(F)(F)F)cc2C#N)CC1 [1-50, 2-[6′-(2-ethoxypyridin-3-yl)-1′-[3-(methylamino)propanoyl]-1′,2′-dihydrospiro[piperidine-4,3′-pyrrolo[2,3-b]pyridin]-1-yl]-5-(trifluoromethyl)benzonitrile] | < 10 nM |
| CCOc1ncccc1-c1ccc2c(n1)N(C[C@H](N)CO)CC21CCN(c2ccc(C(F)(F)F)cc2C#N)CC1 [1-51, 2-{1′-[(2S)-2-amino-3-hydroxypropyl]-6′-(2-ethoxypyridin-3-yl)-1′,2′-dihydrospiro[piperidine-4,3′-pyrrolo[2,3-b]pyridin]-1-yl}-5-(trifluoromethyl)benzonitrile] | < 10 nM |
| CCOc1ncccc1-c1ccc2c(n1)N([C@@H]1CCNC1)CC21CCN(c2ccc(C(F)(F)F)cc2C#N)CC1 [1-52, 2-[6′-(2-ethoxypyridin-3-yl)-1′-[(3R)-pyrrolidin-3-yl]-1′,2′-dihydrospiro[piperidine-4,3′-pyrrolo[2,3-b]pyridin]-1-yl]-5-(trifluoromethyl)benzonitrile] | < 10 nM |
| CCOc1ncccc1-c1ccc2c(n1)N([C@H]1CCNC1)CC21CCN(c2ccc(C(F)(F)F)cc2C#N)CC1 [1-53, 2-[6′-(2-ethoxypyridin-3-yl)-1′-[(3S)-pyrrolidin-3-yl]-1′,2′-dihydrospiro[piperidine-4,3′-pyrrolo[2,3-b]pyridin]-1-yl]-5-(trifluoromethyl)benzonitrile] | 10 to 100 nM |
| CCOc1ncccc1-c1ccc2c(n1)N(CCCN)CC21CCN(c2ccc(C(F)(F)F)cc2C#N)CC1 [1-54, 2-[1′-(3-aminopropyl)-6′-(2-ethoxypyridin-3-yl)-1′,2′-dihydrospiro[piperidine-4,3′-pyrrolo[2,3-b]pyridin]-1-yl]-5-(trifluoromethyl)benzonitrile] | < 10 nM |
| CCOc1ncccc1-c1ccc2c(n1)N(C(=O)NCCN)CC21CCN(c2ccc(C(F)(F)F)cc2C#N)CC1 [1-55, N-(2-aminoethyl)-1-[2-cyano-4-(trifluoromethyl)phenyl]-6′-(2-ethoxypyridin-3-yl)-1′,2′-dihydrospiro[piperidine-4,3′-pyrrolo[2,3-b]pyridine]-1′-carboxamide] | < 10 nM |
| CCOc1ncccc1-c1ccc2c(n1)N(C(=O)NC[C@H](C)N)CC21CCN(c2ccc(C(F)(F)F)cc2C#N)CC1 [1-56, N-[(2S)-2-aminopropyl]-1-[2-cyano-4-(trifluoromethyl)phenyl]-6′-(2-ethoxypyridin-3-yl)-1′,2′-dihydrospiro[piperidine-4,3′-pyrrolo[2,3-b]pyridine]-1′-carboxamide] | 10 to 100 nM |
| CCOc1ncccc1-c1ccc2c(n1)N(C(=O)N[C@@H]1CCNC1)CC21CCN(c2ccc(C(F)(F)F)cc2C#N)CC1 [1-57, 1-[2-cyano-4-(trifluoromethyl)phenyl]-6′-(2-ethoxypyridin-3-yl)-N-[(3R)-pyrrolidin-3-yl]-1′,2′-dihydrospiro[piperidine-4,3′-pyrrolo[2,3-b]pyridine]-1′-carboxamide] | 10 to 100 nM |
| CCOc1ncccc1-c1ccc2c(n1)N(C(=O)CCN(C)C)CC21CCN(c2ccc(C(F)(F)F)cc2C#N)CC1 [1-58, 2-{1′-[3-(dimethylamino)propanoyl]-6′-(2-ethoxypyridin-3-yl)-1′,2′-dihydrospiro[piperidine-4,3′-pyrrolo[2,3-b]pyridin]-1-yl}-5-(trifluoromethyl)benzonitrile] | < 10 nM |
| CCOc1ncccc1-c1ccc2c(n1)N(C(=O)NCCNC)CC21CCN(c2ccc(C(F)(F)F)cc2C#N)CC1 [1-59, 1-[2-cyano-4-(trifluoromethyl)phenyl]-6′-(2-ethoxypyridin-3-yl)-N-[2-(methylamino)ethyl]-1′,2′-dihydrospiro[piperidine-4,3′-pyrrolo[2,3-b]pyridine]-1′-carboxamide] | < 10 nM |
| CCOc1ncccc1-c1ccc2c(n1)N(CCN)C(=O)C21CCN(c2ccc(C(F)(F)F)cc2C#N)CC1 [1-60, 2-[1′-(2-aminoethyl)-6′-(2-ethoxypyridin-3-yl)-2′-oxo-1′,2′-dihydrospiro[piperidine-4,3′-pyrrolo[2,3-b]pyridin]-1-yl]-5-(trifluoromethyl)benzonitrile] | < 10 nM |
| CCOc1ncccc1-c1ccc2c(n1)N(C[C@@H](C)N)C(=O)C21CCN(c2ccc(C(F)(F)F)cc2C#N)CC1 [1-61, 2-{1′-[(2R)-2-aminopropyl]-6′-(2-ethoxypyridin-3-yl)-2′-oxo-1′,2′-dihydrospiro[piperidine-4,3′-pyrrolo[2,3-b]pyridin]-1-yl}-5-(trifluoromethyl)benzonitrile] | < 10 nM |
| CCOc1ncccc1-c1ccc2c(n1)N(CCN(C)C)C(=O)C21CCN(c2ccc(C(F)(F)F)cc2C#N)CC1 [1-62, 2-{1′-[2-(dimethylamino)ethyl]-6′-(2-ethoxypyridin-3-yl)-2′-oxo-1′,2′-dihydrospiro[piperidine-4,3′-pyrrolo[2,3-b]pyridin]-1-yl}-5-(trifluoromethyl)benzonitrile] | < 10 nM |

Second part, the compound after the results:

| Ki | SMILES |
| --- | --- |
| < 10 nM | CCOc1ncccc1-c1ccc2c(n1)N(CCNC)C(=O)C21CCN(c2ccc(C(F)(F)F)cc2C#N)CC1 [1-63, 2-[6′-(2-ethoxypyridin-3-yl)-1′-[2-(methylamino)ethyl]-2′-oxo-1′,2′-dihydrospiro[piperidine-4,3′-pyrrolo[2,3-b]pyridin]-1-yl]-5-(trifluoromethyl)benzonitrile] |
| < 10 nM | CCOc1ncccc1-c1ccc2c(c1)N(CCN)C(=O)NC21CCN(c2ccc(C(F)(F)F)cc2C#N)CC1 [1-64, 2-[1′-(2-aminoethyl)-7′-(2-ethoxypyridin-3-yl)-2′-oxo-2′,3′-dihydro-1′H-spiro[piperidine-4,4′-quinazolin]-1-yl]-5-(trifluoromethyl)benzonitrile] |
| < 10 nM | CCOc1ncccc1-c1ccc2c(c1)N(CCNC)C(=O)NC21CCN(c2ccc(C(F)(F)F)cc2C#N)CC1 [1-65, 2-[7′-(2-ethoxypyridin-3-yl)-1′-[2-(methylamino)ethyl]-2′-oxo-2′,3′-dihydro-1′H-spiro[piperidine-4,4′-quinazolin]-1-yl]-5-(trifluoromethyl)benzonitrile] |
| 10 to 100 nM | CCOc1ncccc1-c1ccc2c(c1)N(CCN)C(=O)CC21CCN(c2ccc(C(F)(F)F)cc2C#N)CC1 [1-66, 2-[1′-(2-aminoethyl)-7′-(2-ethoxypyridin-3-yl)-2′-oxo-2′,3′-dihydro-1′H-spiro[piperidine-4,4′-quinolin]-1-yl]-5-(trifluoromethyl)benzonitrile] |
| 10 to 100 nM | CCOc1ncccc1-c1ccc2c(c1)N(C[C@H](C)N)C(=O)CC21CCN(c2ccc(C(F)(F)F)cc2C#N)CC1 [1-68, 2-{1′-[(2S)-2-aminopropyl]-7′-(2-ethoxypyridin-3-yl)-2′-oxo-2′,3′-dihydro-1′H-spiro[piperidine-4,4′-quinolin]-1-yl}-5-(trifluoromethyl)benzonitrile] |
| 10 to 100 nM | CCOc1ncccc1-c1ccc2c(c1)N(CCNC)C(=O)CC21CCN(c2ccc(C(F)(F)F)cc2C#N)CC1 [1-69, 2-[7′-(2-ethoxypyridin-3-yl)-1′-[2-(methylamino)ethyl]-2′-oxo-2′,3′-dihydro-1′H-spiro[piperidine-4,4′-quinolin]-1-yl]-5-(trifluoromethyl)benzonitrile] |
| 10 to 100 nM | CCOc1ncccc1-c1ccc2c(c1)N(C[C@@H](C)N)C(=O)CC21CCN(c2ccc(C(F)(F)F)cc2C#N)CC1 [1-70, 2-{1′-[(2R)-2-aminopropyl]-7′-(2-ethoxypyridin-3-yl)-2′-oxo-2′,3′-dihydro-1′H-spiro[piperidine-4,4′-quinolin]-1-yl}-5-(trifluoromethyl)benzonitrile] |
